Results from patent publication US6355799B1, “Substituted benzene compounds, process for their preparation, and herbicidal and defoliant compositions containing them” (ISK Americas Incorporated, priority 1997, dated 2002).

Tests used:
Format in all cases: in vivo
[1] = tested on: redroot pigweed (Amaranthus retroflexus, AMARE); experiment: Pre-emerge test, greenhouse herbicide activity screening; settings: rating scale 0-100, 14 days after application
Method in brief: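 Compounds in acetone were track-sprayed at 15-1000 g ai/ha (187 l/ha) on sandy loam pots: pre-emerge one day after seeding, post-emerge at 2-3 leaf stage with 0.25% v/v non-ionic surfactant. Phytotoxicity was rated 14 days later on a 0 (no damage) to 100 (complete death) scale.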

[2] = tested on: barnyardgrass (Echinochloa crus-galli, ECHCG); experiment: as above; settings: rating scale 0-100, 14 days after application
Method in brief: (§1)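 Rating: 0–100 visual injury, 14 DAA. Application: acetone, 187 l/ha, 15–1000 g ai/ha, flat-fan track sprayer with nozzle 40–45 cm above soil or canopy. Post-emerge runs used 0.25% v/v surfactant on 2–3 leaf plants.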

[3] = tested on: green foxtail (Setaria viridis, SETVI); experiment: as above; settings: rating scale 0-100, 14 days after application
Method in brief: as §1

[4] = tested on: ivyleaf morningglory (Ipomoea hederacea, IPOHE); experiment: as above; settings: rating scale 0-100, 14 days after application
Method in brief: as §1

[5] = tested on: johnsongrass (Sorghum halepense, SORHA); experiment: as above; settings: rating scale 0-100, 14 days after application
Method in brief: as §1

[6] = tested on: lambsquarters (Chenopodium album, CHEAL); experiment: as above; settings: rating scale 0-100, 14 days after application
Method in brief: as §1

[7] = tested on: large crabgrass (Digitaria sanguinalis, DIGSA); experiment: as above; settings: rating scale 0-100, 14 days after application
Method in brief: as §1

[8] = tested on: sicklepod (Cassia obtusifolia, CASOB); experiment: as above; settings: rating scale 0-100, 14 days after application
Method in brief: as §1

[9] = tested on: velvetleaf (Abutilon theophrasti, ABUTH); experiment: as above; settings: rating scale 0-100, 14 days after application
Method in brief: as §1

[10] = tested on: field corn (Zea mays L., var. Dekalb 535, CORN); experiment: Pre-emerge test, crop safety; settings: rating scale 0-100, 14 days after application
Method in brief: (§2)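 Applied at 15–1000 g ai/ha from acetone in 187 l/ha spray volume. Post-emergence applications included 0.25% v/v non-ionic surfactant and reached plants sown 8–21 days before. Pre-emergence applications were incorporated by surface watering. Efficacy or crop damage was rated on a 0–100 scale after 14 days.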

[11] = tested on: upland rice (Oryza sp., var. Tebonnet, RICE); experiment: Pre-emerge test, crop safety; settings: rating scale 0-100, 14 days after application
Method in brief: as §2

[12] = tested on: barnyardgrass (Echinochloa crus-galli, ECHCG); experiment: Post-emerge test, greenhouse herbicide activity screening; settings: rating scale 0-100 (0 no damage, 100 complete death), 14 days after application
Method in brief: (§3)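 Visual ratings on a 0-100 scale (0 no damage, 100 all plants dead) were taken at 14 days after treatment. Rates of 15-1000 g ai/ha in acetone, 187 l/ha, were sprayed onto soil one day after planting (pre-emerge) or onto 2-3 leaf plants with 0.25% v/v surfactant (post-emerge).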

[13] = tested on: common ragweed (Ambrosia artemisizfolia L., AMBEL); experiment: as above; settings: rating scale 0-100 (0 no damage, 100 complete death), 14 days after application
Method in brief: as §3

[14] = tested on: green foxtail (Setaria viridis, SETVI); experiment: as above; settings: rating scale 0-100 (0 no damage, 100 complete death), 14 days after application
Method in brief: as §3

[15] = tested on: ivyleaf morningglory (Ipomoea hederacea, IPOHE); experiment: as above; settings: rating scale 0-100 (0 no damage, 100 complete death), 14 days after application
Method in brief: as §3

[16] = tested on: johnsongrass (Sorghum halepense, SORHA); experiment: as above; settings: rating scale 0-100 (0 no damage, 100 complete death), 14 days after application
Method in brief: as §3

[17] = tested on: lambsquarters (Chenopodium album, CHEAL); experiment: as above; settings: rating scale 0-100 (0 no damage, 100 complete death), 14 days after application
Method in brief: as §3

[18] = tested on: large crabgrass (Digitaria sanguinalis, DIGSA); experiment: as above; settings: rating scale 0-100 (0 no damage, 100 complete death), 14 days after application
Method in brief: as §3

[19] = tested on: redroot pigweed (Amaranthus retroflexus, AMARE); experiment: as above; settings: rating scale 0-100 (0 no damage, 100 complete death), 14 days after application
Method in brief: as §3

[20] = tested on: sicklepod (Cassia obtusifolia, CASOB); experiment: as above; settings: rating scale 0-100 (0 no damage, 100 complete death), 14 days after application
Method in brief: as §3

[21] = tested on: velvetleaf (Abutilon theophrasti, ABUTH); experiment: as above; settings: rating scale 0-100 (0 no damage, 100 complete death), 14 days after application
Method in brief: as §3

[22] = tested on: field corn (Zea mays L., var. Dekalb 535, CORN); experiment: Post-emerge test, crop safety; settings: rating scale 0-100 (0 no damage, 100 complete death), 14 days after application
Method in brief: (§4)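 Plants grown in 10 cm pots of sandy loam mix received acetone-dissolved compounds through a moving flat-fan nozzle. Doses ranged from 15 to 1000 g ai/ha. Pre-emerge pots were seeded one day earlier, post-emerge pots 8–21 days earlier. Fourteen days on, each pot was graded 0–100 for damage.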

[23] = tested on: upland rice (Oryza sp., var. Tebonnet, RICE); experiment: Post-emerge test, crop safety; settings: rating scale 0-100 (0 no damage, 100 complete death), 14 days after application
Method in brief: as §4

## CCOC(=O)C(Br)Cc1c(OC)c(Cl)cc(F)c1-n1c(=O)cc(C(F)(F)F)n(C)c1=O (single isomer, unassigned) [14-33]
[1]; 63 g ai/ha
  Pre-emerge herbicidal activity, phytotoxicity rating AMARE: 100
[1]; 250 g ai/ha
  Pre-emerge herbicidal activity, phytotoxicity rating AMARE: 100
[2]; 63 g ai/ha
  Pre-emerge herbicidal activity, phytotoxicity rating ECHCG: 0
[2]; 250 g ai/ha
  Pre-emerge herbicidal activity, phytotoxicity rating ECHCG: 0
[3]; 63 g ai/ha
  Pre-emerge herbicidal activity, phytotoxicity rating SETVI: 0
[3]; 250 g ai/ha
  Pre-emerge herbicidal activity, phytotoxicity rating SETVI: 50
[4]; 63 g ai/ha
  Pre-emerge herbicidal activity, phytotoxicity rating IPOHE: 0
[4]; 250 g ai/ha
  Pre-emerge herbicidal activity, phytotoxicity rating IPOHE: 0
[5]; 63 g ai/ha
  Pre-emerge herbicidal activity, phytotoxicity rating SORHA: 0
[5]; 250 g ai/ha
  Pre-emerge herbicidal activity, phytotoxicity rating SORHA: 30
[6]; 63 g ai/ha
  Pre-emerge herbicidal activity, phytotoxicity rating CHEAL: 0
[6]; 250 g ai/ha
  Pre-emerge herbicidal activity, phytotoxicity rating CHEAL: 90
[7]; 63 g ai/ha
  Pre-emerge herbicidal activity, phytotoxicity rating DIGSA: 0
[7]; 250 g ai/ha
  Pre-emerge herbicidal activity, phytotoxicity rating DIGSA: 99
[8]; 63 g ai/ha
  Pre-emerge herbicidal activity, phytotoxicity rating CASOB: 0
[8]; 250 g ai/ha
  Pre-emerge herbicidal activity, phytotoxicity rating CASOB: 0
[9]; 63 g ai/ha
  Pre-emerge herbicidal activity, phytotoxicity rating ABUTH: 20
[9]; 250 g ai/ha
  Pre-emerge herbicidal activity, phytotoxicity rating ABUTH: 90
[10]; 63 g ai/ha
  Pre-emerge phytotoxicity rating, crop damage CORN: 10
[10]; 250 g ai/ha
  Pre-emerge phytotoxicity rating, crop damage CORN: 20
[11]; 63 g ai/ha
  Pre-emerge phytotoxicity rating, crop damage RICE: 0
[11]; 250 g ai/ha
  Pre-emerge phytotoxicity rating, crop damage RICE: 10
[12]; Rate 63 g ai/ha
  Post-emerge Herbicidal Activity, phytotoxicity rating ECHCG: 100
[12]; Rate 250 g ai/ha
  Post-emerge Herbicidal Activity, phytotoxicity rating ECHCG: 100
[13]; Rate 63 g ai/ha
  Post-emerge Herbicidal Activity, phytotoxicity rating AMBEL: 0
[13]; Rate 250 g ai/ha
  Post-emerge Herbicidal Activity, phytotoxicity rating AMBEL: 100
[14]; Rate 63 g ai/ha
  Post-emerge Herbicidal Activity, phytotoxicity rating SETVI: 40
[14]; Rate 250 g ai/ha
  Post-emerge Herbicidal Activity, phytotoxicity rating SETVI: 90
[15]; Rate 63 g ai/ha
  Post-emerge Herbicidal Activity, phytotoxicity rating IPOHE: 20
[15]; Rate 250 g ai/ha
  Post-emerge Herbicidal Activity, phytotoxicity rating IPOHE: 20
[16]; Rate 63 g ai/ha
  Post-emerge Herbicidal Activity, phytotoxicity rating SORHA: 10
[16]; Rate 250 g ai/ha
  Post-emerge Herbicidal Activity, phytotoxicity rating SORHA: 95
[17]; Rate 63 g ai/ha
  Post-emerge Herbicidal Activity, phytotoxicity rating CHEAL: 20
[17]; Rate 250 g ai/ha
  Post-emerge Herbicidal Activity, phytotoxicity rating CHEAL: 70
[18]; Rate 63 g ai/ha
  Post-emerge Herbicidal Activity, phytotoxicity rating DIGSA: 70
[18]; Rate 250 g ai/ha
  Post-emerge Herbicidal Activity, phytotoxicity rating DIGSA: 100
[19]; Rate 63 g ai/ha
  Post-emerge Herbicidal Activity, phytotoxicity rating AMARE: 100
[19]; Rate 250 g ai/ha
  Post-emerge Herbicidal Activity, phytotoxicity rating AMARE: 100
[20]; Rate 63 g ai/ha
  Post-emerge Herbicidal Activity, phytotoxicity rating CASOB: 0
[20]; Rate 250 g ai/ha
  Post-emerge Herbicidal Activity, phytotoxicity rating CASOB: 0
[21]; Rate 63 g ai/ha
  Post-emerge Herbicidal Activity, phytotoxicity rating ABUTH: 90
[21]; Rate 250 g ai/ha
  Post-emerge Herbicidal Activity, phytotoxicity rating ABUTH: 100
[22]; Rate 63 g ai/ha
  Post-emerge phytotoxicity rating CORN (crop damage): 10
[22]; Rate 250 g ai/ha
  Post-emerge phytotoxicity rating CORN (crop damage): 95
[23]; Rate 63 g ai/ha
  Post-emerge phytotoxicity rating RICE (crop damage): 0
[23]; Rate 250 g ai/ha
  Post-emerge phytotoxicity rating RICE (crop damage): 0
